Assays:
[1] = molecular target: BTK (C481S) (Homo sapiens (Human), UniProt Q06187, C481S); experiment: BTK C481S enzyme experiment (ADP-Glo kinase assay); format: biochemical; conditions: 10 nM BTK C481S, ATP 125 μM, Poly(Glu4, Tyr1), 90 minutes at 20° C.
Outline: (§1)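 Wild-type or C481S BTK, added as 2× solution at 10 nM, preincubated 10 min with 3-fold compound dilutions in 50 mM HEPES pH 7.5, 10 mM MgCl2, 2 mM DTT, 0.0015% Brij-35. ADP-Glo luminescence norm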

[2] = molecular target: BTK (Homo sapiens (Human), UniProt Q06187); experiment: BTK enzyme experiment (ADP-Glo kinase assay); format: biochemical; conditions: 10 nM BTK, ATP 125 μM, Poly(Glu4, Tyr1), 90 minutes at 20° C.; read-out: BTK(WT) IC50
Outline: as §1

[3] = tested on: TMD-8 cells; experiment: TMD-8 proliferation inhibition experiment; format: cell-based; conditions: human diffuse large B lymphoma cells, three days incubation
Procedure: TMD-8 cells are human diffuse large B lymphoma (Mingzhou Bio, MZ-0832), cultured in 10% FBS+1% PS 1640 medium; OCI-LY10 is human diffuse large B lymphoma (BeNa Culture Collection, BNCC337742), cultured in 10% FBS+1% PS IMDM. Day 1: Cells at logarithmic growth phase were taken, counted and inoculated 600 TMD-8 or 2000 OCI-LY10 cells in a 384-well cell culture plate and cultured overnight. Day 2: A 3-fold gradient concentration stock solution of 400× compound was prepared with DMSO, and diluted 40-fold to a 10× compound stock solution with culture medium. The 10× compound stock solution was added to each cell culture well with a final concentration of 1× compound stock solution and a DMSO content of 0.25%. DMSO was used as experimental control, and culture medium was used as blank control. The incubation was continued for three days after compound addition. On the fifth day, 25 μL of […] was added to each well, mixed well and incubated for 10 minutes, then the chemiluminescence value (RLU value) was read. The cell proliferation inhibition rate (%)=(RLUcontrol−RLUcompound)/(RLUcontrol−RLUblank)×100% was calculated. The compound gradient dilution concentration and the corresponding cell proliferation inhibition rate were fit by using XLFit four-parameter method, and IC50 value was calculated.

BTK (C481S), sequence (Q06187 whole entry C481S): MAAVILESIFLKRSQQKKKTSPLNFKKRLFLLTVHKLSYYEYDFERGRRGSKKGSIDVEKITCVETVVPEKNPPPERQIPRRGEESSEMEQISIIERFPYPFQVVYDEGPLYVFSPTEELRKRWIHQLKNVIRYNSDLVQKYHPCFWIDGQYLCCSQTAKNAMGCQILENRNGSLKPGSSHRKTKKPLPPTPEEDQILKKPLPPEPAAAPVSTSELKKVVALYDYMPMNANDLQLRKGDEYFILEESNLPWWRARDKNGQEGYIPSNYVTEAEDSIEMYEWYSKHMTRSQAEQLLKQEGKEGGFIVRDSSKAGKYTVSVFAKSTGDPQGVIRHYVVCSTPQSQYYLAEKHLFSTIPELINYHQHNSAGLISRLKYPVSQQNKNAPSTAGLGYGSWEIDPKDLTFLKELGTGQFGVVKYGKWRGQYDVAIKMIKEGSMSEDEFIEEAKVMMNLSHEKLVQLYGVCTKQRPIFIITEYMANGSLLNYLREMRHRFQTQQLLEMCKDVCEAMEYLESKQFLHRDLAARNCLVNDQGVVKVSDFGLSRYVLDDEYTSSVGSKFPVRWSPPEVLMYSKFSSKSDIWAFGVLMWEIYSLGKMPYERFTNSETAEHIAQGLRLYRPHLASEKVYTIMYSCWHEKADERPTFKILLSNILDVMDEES
BTK, sequence (Q06187 whole entry): as the sequence (Q06187 whole entry C481S) above, with S481C counted along it

SMILES | IC50 [1] [nM] | IC50 [2] [nM] | IC50 ([3]; Homo sapiens, TMD8, 72 h) [nM] | IC50 [3] [nM] | IC50 ([3]; TMD8, 72 h) [nM]
COCC[C@@]1(C)Nc2c(cnc3[nH]cc(C(=O)c4ccc(Oc5ccccc5)cc4Cl)c23)NC1=O [Z78-1] | 28.8 | 27.6 |  | 289 | 
COC[C@]1(C)Nc2c(cnc3[nH]cc(C(=O)c4ccc(Oc5cccc(C)n5)cc4Cl)c23)NC1=O [Z124-1, (S)-9-(2-chloro-4-((6-methylpyridin-2-yl)oxy)benzoyl)-2-(methoxymethyl)-2-methyl-1,2,4,7-tetrahydro-3H-pyrrolo[3′,2′:5,6]pyrido[3,4-b]pyrazin-3-one] | 30.1 | 24.5 |  |  | 199
COC1CCC2(C1)Nc1c(cnc3[nH]cc(C(=O)c4ccc(Oc5cc(C)ccn5)cc4Cl)c13)NC2=O (stereo not drawn) [Z126, 9′-(2-chloro-4-((4-methylpyridin-2-yl)oxy)benzoyl)-3-methoxy-4′,7′-dihydrospiro[cyclopentane-1,2′-pyrrolo[3′,2′:5,6]pyrido[3,4-b]pyrazin]-3′(1′H)-one] | 13.4 | 5.7 | 183 |  | 
C[C@@]1(COC(F)F)Nc2c(cnc3[nH]cc(C(=O)c4ccc(Oc5ccccc5)cc4Cl)c23)NC1=O [Z139, (S)-9-(2-chloro-4-phenoxybenzoyl)-2-((difluoromethoxy)methyl)-2-methyl-1,2,4,7-tetrahydro-3H-pyrrolo[3′,2′:5,6]pyrido[3,4-b]pyrazin-3-one] | 22.1 | 37.1 | 106 |  | 
COC[C@]1(C)Nc2c(cnc3[nH]cc(C(=O)c4ccc(Oc5ccccc5)cc4Cl)c23)N(CCO)C1=O [Z143] | 23.2 | 35.6 |  | 291 | 

More lines, main results first:

IC50 [1] [nM] | IC50 [2] [nM] | SMILES | IC50 ([3]; Homo sapiens, TMD8, 72 h) [nM] | IC50 [3] [nM] | IC50 ([3]; TMD8, 72 h) [nM]
14.5 | 22.8 | COCC1(C)Nc2c(cnc3[nH]cc(C(=O)c4ccc(Oc5cc(C6CC6)ccn5)cc4Cl)c23)NC1=O (stereo not drawn) [Z73, 9-(2-chloro-4-((4-cyclopropylpyridin-2-yl)oxy)benzoyl)-2-(methoxymethyl)-2-methyl-4,7-dihydro-1H-pyrrolo[3′,2′:5,6]pyrido[3,4-b]pyrazin-3(2H)-one] | 209 |  | 
37.8 | 26.9 | COC[C@]1(C)Nc2c(cnc3[nH]cc(C(=O)c4ccc(Oc5cccc(C#N)c5)cc4Cl)c23)NC1=O [Z131, (S)-3-(3-chloro-4-(2-(methoxymethyl)-2-methyl-3-oxo-2,3,4,7-tetrahydro-1H-pyrrolo[3′,2′:5,6]pyrido[3,4-b]pyrazine-9-carbonyl)phenoxy)benzonitrile] | 307 |  | 
11.4 | 14.9 | COC[C@]1(C)Nc2c(cnc3[nH]cc(C(=O)c4ccc(Oc5cc(Cl)cc(C)n5)cc4Cl)c23)NC1=O [Z134, (S)-9-(2-chloro-4-((4-chloro-6-methylpyridin-2-yl)oxy)benzoyl)-2-(methoxymethyl)-2-methyl-1,2,4,7-tetrahydro-3H-pyrrolo[3′,2′:5,6]pyrido[3,4-b]pyrazin-3-one] | 256 |  | 
18.2 | 26.5 | COC[C@]1(C)Nc2c(cnc3[nH]cc(C(=O)c4ccc(Oc5ncccc5C)cc4Cl)c23)NC1=O [Z140, (S)-9-(2-chloro-4-((3-methylpyridin-2-yl)oxy)benzoyl)-2-(methoxymethyl)-2-methyl-1,2,4,7-tetrahydro-3H-pyrrolo[3′,2′:5,6]pyrido[3,4-b]pyrazin-3-one] | 158 |  | 
16.8 | 11.7 | COC[C@]1(C)Nc2c(cnc3[nH]cc(C(=O)c4ccc(Oc5ncccc5F)cc4Cl)c23)NC1=O [Z144, (S)-9-(2-chloro-4-((3-fluoropyridin-2-yl)oxy)benzoyl)-2-(methoxymethyl)-2-methyl-1,2,4,7-tetrahydro-3H-pyrrolo[3′,2′:5,6]pyrido[3,4-b]pyrazin-3-one] | 227 |  | 
13.1 | 9.3 | [2H]C([2H])([2H])OC[C@]1(C)Nc2c(cnc3[nH]cc(C(=O)c4ccc(Oc5ncccc5F)cc4Cl)c23)NC1=O [Z145, (S)-9-(2-chloro-4-((3-fluoropyridin-2-yl)oxy)benzoyl)-2-((methoxy-d3)methyl)-2-methyl-1,2,4,7-tetrahydro-3H-pyrrolo[3′,2′:5,6]pyrido[3,4-b]pyrazin-3-one] | 166 |  | 

From patent publication US20240360154A1, “AROYL SUBSTITUTED TRICYCLIC COMPOUND, PREPARATION METHOD THEREFOR AND USE THEREOF” (GENFLEET THERAPEUTICS (SHANGHAI) INC., priority 2020, published 2024)
